Reference: patent publication US20260191874A1, “FUSED AMINO PYRIMIDINE COMPOUNDS FOR TREATMENT OF AUTISM SPECTRUM DISORDER, OBSESSIVE COMPULSIVE DISORDER AND TICS” (Ovid Therapeutics Inc., priority 2024, published 2026)

Tests used:
hippocampus = experiment: Neuronal cell death in the hippocampus of mice treated with diazepam; type: in vivo; conditions: Compound A and diazepam, compared to diazepam alone
[1] = PK studies: brain and plasma levels by LC-MS/MS; type: in vivo, mice
[2] = test system: panel of 144 protein kinases; experiment: SelectScreen protein kinase panel; type: biochemical; conditions: 144 protein kinases incl. PKC isoforms, OSR1, SPAK, WNK
Description: Aliquots of HEK-293 cells expressing KCC2 were exposed to 30 μM SSA, heated from 37-55° C. The remaining level of soluble native KCC2 at each temperature was measured by immunoblotting and normalized to the level seen at 37° C. which was given a value of 1. […] This panel included protein kinase C isoforms, OSR1, SPAK (STK39) and with-no-lysine kinases (WNK), all of which phosphorylate KCC2 on multiple residues to indirectly modify its activity (Kahle et al., 2013, supra; Smalley et al., 2020, supra).

acute brain slices = experiment: Acute brain slices exposed to 0-Mg
KCC4 = target: T1, KCC4 (Homo sapiens, UniProt Q9Y666); experiment: Tl+ flux assay in HEK-293 cells expressing KCC4; type: cell-based; conditions: read-out: concentration at which effects on KCC4 were seen (EC50 chart, FIG. 1G)
T1 construct: expressed in transfected cells; host or cells: HEK-293
T1 sequence (Q9Y666 1-1083): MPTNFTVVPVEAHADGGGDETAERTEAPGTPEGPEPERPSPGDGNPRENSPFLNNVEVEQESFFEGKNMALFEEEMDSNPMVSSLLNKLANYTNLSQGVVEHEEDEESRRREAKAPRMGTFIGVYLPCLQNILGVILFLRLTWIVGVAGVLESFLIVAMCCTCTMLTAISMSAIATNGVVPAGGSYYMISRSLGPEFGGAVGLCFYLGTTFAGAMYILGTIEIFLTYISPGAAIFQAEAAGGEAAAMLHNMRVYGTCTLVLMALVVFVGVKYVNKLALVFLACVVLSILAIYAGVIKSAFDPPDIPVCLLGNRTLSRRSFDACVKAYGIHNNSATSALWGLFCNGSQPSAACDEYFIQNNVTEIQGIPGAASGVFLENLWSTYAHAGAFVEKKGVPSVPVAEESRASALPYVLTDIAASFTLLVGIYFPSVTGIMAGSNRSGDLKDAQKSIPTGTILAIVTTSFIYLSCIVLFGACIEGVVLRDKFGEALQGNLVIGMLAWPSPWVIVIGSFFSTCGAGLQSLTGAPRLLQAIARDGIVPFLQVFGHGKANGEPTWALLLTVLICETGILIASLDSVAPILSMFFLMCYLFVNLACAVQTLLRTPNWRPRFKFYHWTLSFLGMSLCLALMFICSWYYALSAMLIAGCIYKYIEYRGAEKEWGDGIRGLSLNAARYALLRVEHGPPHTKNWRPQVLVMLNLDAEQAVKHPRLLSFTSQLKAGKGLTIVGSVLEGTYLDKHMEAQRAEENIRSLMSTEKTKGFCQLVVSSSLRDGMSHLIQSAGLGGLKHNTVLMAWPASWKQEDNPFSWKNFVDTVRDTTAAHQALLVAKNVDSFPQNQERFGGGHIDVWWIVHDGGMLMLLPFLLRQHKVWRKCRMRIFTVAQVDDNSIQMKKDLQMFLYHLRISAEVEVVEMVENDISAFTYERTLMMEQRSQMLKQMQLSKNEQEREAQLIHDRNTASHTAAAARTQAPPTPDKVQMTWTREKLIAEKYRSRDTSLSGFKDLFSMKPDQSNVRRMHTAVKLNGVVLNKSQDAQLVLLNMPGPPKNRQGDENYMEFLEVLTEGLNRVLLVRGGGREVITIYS
Description: FLIPR TI Flux assay. HEK-293 cells were washed with HBSS, and then incubated with loading buffer containing TI sensitive fluorescent dye (https://www.moleculardevices.com), 20 μM bumetanide 20 μM ouabain and 2.5 mM probenecid for 1 h at room temperature (RT) under control conditions or with drugs in the dark using a FlexStation 3 microplate reader (Molecular Devices) and imaged […] for 30 min. Stimulus buffer was added containing 5 mM K^+/0.5 mM Tl^+ and cells were imaged every 1.5 over a 190 second time course The initial rate Tl^+ uptake (Relative Fluorescence Units (RFU) per second) was determined following addition of the stimulus buffer as outlined previously (Conway et al., 2017, supra) (Lee et al., 2022, supra).
Several studies have shown that the activity and plasma membrane accumulation of KCC2 is potentiated via phosphorylation of S940, a process mediated by the activity of protein kinase C and protein phosphatase 1 (Lee et al., 2011, supra; Lee et al., J Biol Chem 282, 29777-29784 (2007); Moore et al., Proc. Natl. Acad. Sci. U.S.A 115, 10166-10171 (2018); Moore et al., Trends Neurosci. 40, 555-571 (2017); Silayeva et al., Proc. Natl. Acad. Sci. U.S.A 112, 3523-3528 (2015)). […] Compared to KCC2, effects on KCC3, KCC4, and NKCC1 were only seen at concentrations more than 35-fold that of KCC2 (≥100 μM) (FIG. 1G).

For C[C@@H]1CN(c2nc3c(c(Nc4ccc(C5CCCCC5)cc4)n2)COC3)CCO1 [Compound A, (R)—N-(4-cyclohexylphenyl)-2-(2-methylmorpholino)-5,7-dihydrofuro[3,4-d]pyrimidin-4-amine], the “neuronal cell death in the hippocampus” value (hippocampus) was “significantly reduced”, the “time by which accumulation in the brain was evident” value ([1]; 25 mg/kg IV bolus, mice) was at most 30 min and the “time at which accumulation in brain was detected” value ([1]; 50 mg/kg SC) was 30 min. The “time of maximal concentration in brain” value ([1]; 50 mg/kg SC) was 4 h, the “effect on activity of kinase panel” value [2] was “did not modify the activity” and the “neuronal Cl− accumulation and development of late recurrent discharges (LRDs)” value (acute brain slices) was “reduced”. It also gave an EC50 (KCC4) of at least 100 µM.
